Data from the supplement of paper PMC10307832.

Key:
Assay in all cases: relative viability (nuclei count vs DMSO), 5 days (fraction); higher = more cells survive
[1] = compound: CC1=CC(=CC=C1)NC2=NC(=CS2)C3=CC=NC=C3 + Cc1nc(NC(=O)N2CCC[C@H]2C(N)=O)sc1-c1ccnc(C(C)(C)C(F)(F)F)c1 [Alpelisib] (partner 2 µM)
Method in brief: (§1)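 Nuclei were stained with Hoechst during a one-step fixation (final 0.05% Triton X-100, 1% formaldehyde, 1 ug/ml Hoechst) carried out 5 days after dosing, then counted on 4× images. The cells, lung cancer lines in 1536-well plates, had been dosed by pin tool the day after seeding with one drug alone or a fixed anchor-drug dose plus five library-drug doses (not always all listed) in √10 steps. Relative viability is the nuclei count in treated wells divided by that in vehicle wells, and each value is the median of duplicate plates.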

[2] = compound: CC1=CC(=CC=C1)NC2=NC(=CS2)C3=CC=NC=C3 + CC(=O)Nc1cccc(-n2c(=O)n(C3CC3)c(=O)c3c(Nc4ccc(I)cc4F)n(C)c(=O)c(C)c32)c1 [Trametinib] (partner 0.02 µM)
Method in brief: as §1

[3] = compound: Cc1ccc(NC(=O)c2ccc(CN3CCN(C)CC3)cc2)cc1Nc1nc(-c2cccnc2)cs1 [Masitinib] + O=C(CCCCCCC(=O)Nc1ccccc1)NO [Vorinostat] (partner 1 µM)
Method in brief: as §1

[4] = compound: CC1=CC(=CC=C1)NC2=NC(=CS2)C3=CC=NC=C3 + N=C(N)NC(=N)NCCc1ccccc1 [Phenformin] (partner 250 µM)
Method in brief: as §1

| Cell Line | relative viability ([1]; first compound 0.08 µM) | relative viability ([1]; first compound 0.253 µM) | relative viability ([1]; first compound 0.8 µM) | relative viability ([1]; first compound 2.53 µM) | relative viability ([1]; first compound 8 µM) | relative viability ([2]; first compound 0.08 µM) | relative viability ([2]; first compound 0.253 µM) | relative viability ([2]; first compound 0.8 µM) | relative viability ([2]; first compound 2.53 µM) | relative viability ([2]; first compound 8 µM) | relative viability ([3]; first compound 0.01 µM) | relative viability ([3]; first compound 0.03162 µM) | relative viability ([3]; first compound 0.1 µM) | relative viability ([3]; first compound 0.3162 µM) | relative viability ([3]; first compound 1 µM) | relative viability ([4]; first compound 0.08 µM) | relative viability ([4]; first compound 0.253 µM) | relative viability ([4]; first compound 0.8 µM) | relative viability ([4]; first compound 2.53 µM) | relative viability ([4]; first compound 8 µM) |
| --- | --- | --- | --- | --- | --- | --- | --- | --- | --- | --- | --- | --- | --- | --- | --- | --- | --- | --- | --- | --- |
| 201T | 1 | 1.05 | 1.04 | 0.96 | 0.853 | 0.75 | 0.76 | 0.76 | 0.778 | 0.659 | 0.74 | 1.05 | 0.774 | 0.78 | 0.914 | 0.389 | 0.38 | 0.44 | 0.375 | 0.433 |
| A549 | 0.778 | 0.693 | 0.913 | 0.758 | 0.673 | – | – | – | – | – | – | – | – | – | – | 0.179 | 0.179 | 0.15 | 0.169 | 0.235 |
| A-427 | 1.03 | 1.06 | 1.1 | – | 0.844 | 0.572 | 0.716 | 0.714 | 0.719 | 0.624 | 0.608 | 0.827 | 0.791 | 0.826 | 0.827 | 0.355 | 0.28 | 0.355 | 0.326 | 0.244 |
| ABC-1 | 0.928 | 0.891 | 0.873 | 0.907 | 0.967 | – | – | – | – | – | 1.05 | 0.997 | 1.44 | 1.15 | 0.877 | 0.229 | 0.223 | 0.193 | 0.221 | 0.31 |
| BEN | 1.11 | 0.973 | 1.07 | 0.856 | 0.91 | 0.82 | 1.16 | 0.99 | 0.994 | 0.898 | 0.616 | 0.533 | 0.557 | 0.528 | 0.557 | 0.27 | 0.254 | 0.285 | 0.266 | 0.25 |
| CAL-12T | 1.22 | 1.13 | 1.33 | 1.07 | 1.22 | 0.282 | 0.325 | 0.342 | 0.236 | 0.305 | 0.942 | 0.756 | 0.904 | 0.986 | 0.684 | 0.513 | 0.518 | 0.604 | 0.537 | 0.516 |
| COR-L23 | 0.607 | 0.609 | 0.508 | 0.611 | 0.71 | 0.44 | 0.598 | 0.59 | 0.568 | 0.567 | 0.532 | 0.411 | 0.435 | 0.46 | 0.373 | 0.414 | 0.378 | 0.443 | 0.377 | 0.406 |
| COR-L 105 | 0.956 | 0.794 | 0.869 | 0.773 | 0.715 | 0.442 | 0.465 | 0.454 | 0.424 | 0.38 | 0.741 | 1.09 | 0.971 | 0.78 | 0.841 | 0.429 | 0.495 | 0.534 | 0.388 | 0.496 |
| Calu-6 | 0.886 | 0.744 | 0.906 | 0.957 | 0.919 | – | – | – | – | – | – | – | – | – | – | – | – | – | – | – |
| ChaGo-K-1 | – | – | – | – | – | 0.903 | 0.882 | 0.858 | 0.929 | 0.839 | 0.901 | 0.711 | 0.853 | 0.775 | 0.732 | 0.445 | 0.439 | 0.5 | 0.409 | 0.464 |
| EBC-1 | 0.644 | 0.744 | 0.773 | 0.809 | 0.712 | – | – | – | – | – | – | – | – | – | – | – | – | – | – | – |
| EKVX | 0.764 | 0.812 | 0.824 | 0.643 | 0.656 | 0.29 | 0.308 | – | 0.313 | 0.319 | 0.626 | 0.653 | 0.643 | 0.678 | 0.696 | 0.225 | 0.212 | 0.228 | 0.204 | 0.215 |
| EMC-BAC-2 | 0.66 | 0.747 | 0.702 | 0.779 | 0.719 | 0.798 | – | 1.01 | 0.879 | 0.823 | 0.38 | – | 0.441 | 0.445 | 0.335 | 0.415 | 0.505 | 0.58 | 0.541 | 0.491 |
| EPLC-272H | 0.894 | – | 0.927 | – | 0.869 | 0.308 | 0.271 | 0.296 | – | 0.277 | 0.4 | – | 0.392 | 0.464 | 0.425 | 0.275 | 0.224 | 0.332 | 0.307 | 0.294 |
| H3255 | 0.582 | 0.713 | 0.72 | 0.654 | 0.594 | 0.597 | 0.602 | 0.569 | 0.585 | 0.403 | 0.9 | 0.9 | 0.544 | 0.584 | 0.761 | 0.372 | 0.374 | 0.365 | 0.4 | 0.414 |
| HARA | 0.621 | 0.513 | 0.596 | 0.724 | 0.542 | 0.561 | 0.742 | 0.734 | 0.447 | 0.629 | 0.498 | 0.539 | 0.57 | 0.521 | 0.485 | 0.338 | 0.476 | 0.413 | 0.427 | 0.347 |
| HCC-15 | 0.792 | 0.699 | 0.845 | 0.841 | 0.879 | 0.369 | 0.383 | 0.373 | 0.348 | 0.343 | 0.789 | 0.814 | 0.868 | 0.827 | 0.811 | 0.424 | 0.462 | 0.483 | 0.501 | 0.438 |
| HCC-44 | 0.601 | 0.497 | 0.56 | 0.644 | 0.608 | 0.939 | 0.847 | 0.701 | 0.687 | 0.695 | 0.914 | 1.1 | 1.06 | 1.06 | 1.03 | 0.128 | 0.198 | 0.3 | 0.171 | 0.294 |
| HCC-78 | 0.26 | 0.284 | 0.365 | 0.317 | 0.366 | 0.505 | 0.666 | 0.617 | 0.563 | 0.753 | 0.485 | 0.435 | 0.468 | 0.47 | 0.388 | – | 0.628 | 0.527 | 0.631 | 0.75 |
